Measured values reported in patent US11214803B2, “Modulators of YAP1 expression” (Ionis Pharmaceuticals, Inc., priority 2019, dated 2022).
Strand notation (5' to 3'): a small letter for the sugar, then the base; units joined by * are phosphorothioate-linked, units joined directly phosphodiester-linked; [ ] holds rarer units or linkages, { } end groups; capitals alone tell only the bases. k = constrained ethyl (cEt); [5mC] = 5-methylcytosine; d = 2'-deoxy (DNA)

The substances below were run on Yap1 mRNA (assay: Antisense inhibition of human Yap1 in A-431 cells by cEt gapmers, single dose (Example 2, RTS4814)). Settings: A-431 cells, 5,000 cells per well, free uptake, 2,000 nM modified oligonucleotide, approx. 48 hours, RTS4814, normalized to RIBOGREEN; Table 4; asterisk (*) = targets amplicon region of primer probe set.
Assay type: cell-based
Summary of the method: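 Single-dose knockdown screen of 3-10-3 cEt phosphorothioate gapmers at 2,000 nM added by free uptake to A-431 cells. After roughly 48 h, RNA was isolated and Yap1 transcript measured by RT-qPCR, with results given as % UTC.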

Row | Substance | YAP1 (% UTC)
1 | 716523 (antisense k[5mC]*kA*kA*dA*dT*dT*dA*dA*dA*dG*dT*dT*dG*kA*kG*kG) [Compound 716523] | 37
2 | 716535 (antisense k[5mC]*k[5mC]*kT*dG*dA*d[5mC]*dT*dG*dA*dA*dA*dA*dT*kA*kA*k[5mC]) [Compound 716535] | 86
3 | 716442 (kG*k[5mC]*kA*d[5mC]*dT*dA*dG*dG*dA*dG*dG*dA*dA*kA*kA*kG; antisense) [Compound 716442] | 63
4 | 716385 (kT*kT*k[5mC]*d[5mC]*d[5mC]*dA*dT*d[5mC]*d[5mC]*dA*dT*d[5mC]*dA*kG*kG*kA; antisense) [Compound 716385] | 87

Same assay, conditions: Table 5; A-431 cells, 5,000 cells per well, free uptake, 2,000 nM modified oligonucleotide, approx. 48 hours; RTS4814; normalized to RIBOGREEN; Yap1 mRNA relative to untreated control cells

Row | Substance | YAP1 (% UTC)
5 | 716452 (kT*kT*kA*d[5mC]*d[5mC]*dA*dA*dA*dA*d[5mC]*dA*dA*d[5mC]*kT*kA*k[5mC]; antisense) [Compound 716452] | 98
6 | 716440 (k[5mC]*kT*k[5mC]*dT*dT*d[5mC]*dA*dA*dA*dT*d[5mC]*dA*dG*k[5mC]*kA*kT; antisense) [Compound 716440] | 45
7 | 716470 (kA*kA*kT*d[5mC]*dG*dA*dG*dA*d[5mC]*dT*dT*dA*dA*kA*kA*kA; antisense) [Compound 716470] | 104

Same assay, conditions: Table 6; A-431 cells, 5,000 cells per well, free uptake, 2,000 nM modified oligonucleotide, approx. 48 hours; RTS4814; normalized to RIBOGREEN; Yap1 mRNA relative to untreated control cells

Row | Substance | YAP1 (% UTC)
8 | 716417 (kT*kG*kT*dA*dA*dG*dA*dA*dA*dG*d[5mC]*dT*dT*kT*k[5mC]*kT; antisense) [Compound 716417] | 78
9 | 716513 (antisense kA*kA*kT*d[5mC]*dT*dT*dA*dA*dT*d[5mC]*dT*dG*dT*kG*kG*k[5mC]) [Compound 716513] | 30

Same assay, conditions: Table 18; A-431 cells, 5,000 cells per well, free uptake, 2,000 nM modified oligonucleotide, approx. 48 hours; RTS4814; normalized to RIBOGREEN; Yap1 mRNA as percent of untreated control

Row | Substance | YAP1 (% UTC)
10 | 1075140 (antisense k[5mC]*kT*kT*dT*dA*dG*dG*dT*dT*dA*dA*dG*d[5mC]*kA*kA*kT) [Compound 1075140] | 86

Same assay, conditions: Table 19; A-431 cells, 5,000 cells per well, free uptake, 2,000 nM modified oligonucleotide, approx. 48 hours; RTS4814; normalized to RIBOGREEN; Yap1 mRNA as percent of untreated control

Row | Substance | YAP1 (% UTC)
11 | 1076197 (kT*kA*kT*dT*dA*dT*d[5mC]*dA*dA*dG*dG*dG*dA*kA*kT*kT; antisense) [Compound 1076197] | 94
12 | 1074373 (antisense kG*k[5mC]*kT*dT*dT*dG*dG*dT*dT*dG*dA*dT*dA*kG*kT*kA) [Compound 1074373] | 26
13 | 1075301 (k[5mC]*kA*kG*d[5mC]*dA*dA*d[5mC]*dA*d[5mC]*d[5mC]*dT*dA*dA*kG*kG*kA; antisense) [Compound 1075301] | 92
14 | 1076293 (kG*k[5mC]*kT*dT*dA*dT*dT*dA*dT*dT*dG*dA*dG*kT*kT*kA; antisense) [Compound 1076293] | 3

Same assay, conditions: Table 20; Yap1 mRNA, percent of untreated control; 3-10-3 cEt gapmers targeting SEQ ID NO.: 1 and 2

Row | Substance | YAP1 (% UTC)
15 | 1074950 (antisense kA*kT*k[5mC]*dA*dG*dG*dT*dT*dA*dA*dG*dT*dG*kA*kT*kT) [Compound 1074950] | 120
16 | 1076422 (kG*kA*kA*dT*dT*dA*dT*dG*dA*d[5mC]*d[5mC]*dT*d[5mC]*k[5mC]*kA*kT; antisense) [Compound 1076422] | 13
17 | 1075462 (antisense kG*kT*kT*dT*dA*dT*dA*dG*dA*d[5mC]*dA*dA*dG*kT*k[5mC]*kA) [Compound 1075462] | 15
18 | 1075686 (kG*kT*kA*dA*dT*dT*dA*d[5mC]*dA*dG*dT*dG*dT*k[5mC]*kT*k[5mC]; antisense) [Compound 1075686] | 10
19 | 1075846 (kG*kA*kT*dT*dA*dA*dG*dA*dG*d[5mC]*d[5mC]*dT*dA*kT*k[5mC]*kT; antisense) [Compound 1075846] | 96

Same assay, conditions: Table 21; Yap1 mRNA, percent of untreated control; 3-10-3 cEt gapmers targeting SEQ ID NO.: 1 and 2

Row | Substance | YAP1 (% UTC)
20 | 1074151 (antisense kG*kG*kG*d[5mC]*d[5mC]*dG*dA*dG*dG*dT*dG*dG*dA*kG*kA*kA) [Compound 1074151] | 81
21 | 1076263 (kA*kA*kT*dA*dA*d[5mC]*d[5mC]*dA*dA*dG*dT*dG*dA*kG*kT*kT; antisense) [Compound 1076263] | 21

Same assay, conditions: Table 22; Yap1 mRNA as percent of untreated control; 3-10-3 cEt gapmers; single dose

Row | Substance | YAP1 (% UTC)
22 | 1075912 (kA*kG*kT*dT*dA*dT*dA*d[5mC]*dA*d[5mC]*dA*dA*d[5mC]*k[5mC]*kA*k[5mC]; antisense) [Compound 1075912] | 13
23 | 1075528 (kA*kT*k[5mC]*dG*dA*dA*dG*dG*dG*d[5mC]*dA*dA*dA*k[5mC]*kT*k[5mC]; antisense) [Compound 1075528] | 42
24 | 1074184 (antisense kG*k[5mC]*k[5mC]*dG*dG*dT*dT*dG*dA*dG*dG*d[5mC]*dG*kG*k[5mC]*kG) [Compound 1074184] | 100
25 | 1075272 (antisense kA*kA*kT*dT*dA*dG*d[5mC]*d[5mC]*dA*dG*d[5mC]*dA*dT*kG*k[5mC]*kA) [Compound 1075272] | 110
26 | 1076232 (kG*kT*kA*dA*dT*dA*d[5mC]*dA*d[5mC]*d[5mC]*dA*dT*dT*kT*kG*kG; antisense) [Compound 1076232] | 15

Same assay, conditions: Table 23; Yap1 mRNA as percent of untreated control; 3-10-3 cEt gapmers; single dose

Row | Substance | YAP1 (% UTC)
27 | 1074729 (antisense kA*k[5mC]*kA*d[5mC]*dT*dG*dA*dG*dG*dT*dA*dT*dA*kA*k[5mC]*kT) [Compound 1074729] | 9
28 | 1076009 (kT*kA*kG*d[5mC]*dG*dA*dA*dA*dA*dT*dA*dA*d[5mC]*kA*kT*kT; antisense) [Compound 1076009] | 69

Same assay, conditions: Table 24; Yap1 mRNA as percent of untreated control; 3-10-3 cEt gapmers targeting SEQ ID NO.: 1, and 2

Row | Substance | YAP1 (% UTC)
29 | 1075754 (k[5mC]*kT*kT*dA*dA*dA*dT*dG*dG*d[5mC]*dA*d[5mC]*dA*kG*kT*kT; antisense) [Compound 1075754] | 20
30 | 1074954 (antisense k[5mC]*k[5mC]*kG*dG*dG*dT*dT*dT*dT*dT*dG*dT*d[5mC]*kA*kT*k[5mC]) [Compound 1074954] | 91
31 | 1075786 (k[5mC]*kT*kA*dT*dA*dT*dT*dG*dA*dT*dT*d[5mC]*d[5mC]*kA*kG*kA; antisense) [Compound 1075786] | 19

Same assay, conditions: Table 25; Yap1 mRNA as percent of untreated control; 3-10-3 cEt gapmers targeting SEQ ID NO.: 1, and 2

Row | Substance | YAP1 (% UTC)
32 | 1074539 (antisense k[5mC]*kT*kA*dT*d[5mC]*d[5mC]*dA*d[5mC]*dA*dG*dT*dA*dA*kT*kA*kG) [Compound 1074539] | 62
33 | 1075595 (kT*kA*kT*dA*dA*dT*dA*d[5mC]*dA*dT*d[5mC]*dT*d[5mC]*k[5mC]*k[5mC]*k[5mC]; antisense) [Compound 1075595] | 50
34 | 1075371 (k[5mC]*kT*kG*d[5mC]*dA*dA*dA*dA*dG*dT*dT*d[5mC]*dT*kT*kA*k[5mC]; antisense) [Compound 1075371] | 90

Same assay, conditions: Table 32; Yap1 mRNA, percent of untreated control; 3-10-3 cEt gapmers targeting SEQ ID NO.: 1, and 2

Row | Substance | YAP1 (% UTC)
35 | 1075538 (kG*kA*kA*dT*dT*dG*dG*dA*dA*d[5mC]*dA*d[5mC]*d[5mC]*kT*k[5mC]*kA; antisense) [compound 1075538] | 66
36 | 1075570 (kG*kA*kT*dA*d[5mC]*dT*dA*dA*dG*d[5mC]*dA*d[5mC]*dA*kG*kA*kG; antisense) [compound 1075570] | 16
37 | 1075858 (antisense k[5mC]*k[5mC]*kT*dT*dA*dA*dA*d[5mC]*dA*dA*dT*d[5mC]*d[5mC]*k[5mC]*kT*kA) [compound 1075858] | 23
38 | 1074962 (antisense kA*kG*kG*d[5mC]*dA*dA*dG*d[5mC]*dA*dG*d[5mC]*dT*dA*kA*kA*kT) [compound 1074962] | 78

Same assay, conditions: Table 33; Yap1 mRNA, percent of untreated control; 3-10-3 cEt gapmers targeting SEQ ID NO.: 1, and 2

Row | Substance | YAP1 (% UTC)
39 | 1076083 (k[5mC]*kG*k[5mC]*dT*dA*dT*dA*dA*dA*dG*dT*dG*dG*k[5mC]*kA*kT; antisense) [compound 1076083] | 46
40 | 1074835 (k[5mC]*kT*kT*dG*d[5mC]*dG*dA*dG*dG*dA*dT*dA*dA*kA*kA*kT; antisense) [compound 1074835] | 30

Same assay, conditions: Yap1 mRNA as percent of untreated control; A-431 cells; 3-10-3 cEt gapmers targeting SEQ ID NO.: 1, and 2; Table 30

Row | Substance | YAP1 (% UTC)
41 | 1074160 (kG*k[5mC]*kG*dA*dG*d[5mC]*dG*dA*dG*dG*dG*d[5mC]*dT*kA*k[5mC]*kG; antisense) [compound 1074160] | 86

Same assay, conditions: Yap1 mRNA as percent of untreated control; A-431 cells; 3-10-3 cEt gapmers targeting SEQ ID NO.: 1, and 2; Table 31

Row | Substance | YAP1 (% UTC)
42 | 1076433 (kA*kT*kT*dA*dA*d[5mC]*dT*dT*dT*d[5mC]*dG*d[5mC]*dT*kA*kA*kA; antisense) [compound 1076433] | 69
43 | 1075537 (k[5mC]*kT*kT*dT*dA*dA*dT*dT*dA*d[5mC]*d[5mC]*d[5mC]*dA*kA*kG*kG; antisense) [compound 1075537] | 82
44 | 1074833 (kT*kG*k[5mC]*dG*dA*dG*dG*dA*dT*dA*dA*dA*dA*kT*k[5mC]*k[5mC]; antisense) [compound 1074833] | 17
45 | 1075953 (kA*kA*k[5mC]*d[5mC]*dT*dA*dT*dA*dT*dA*d[5mC]*d[5mC]*dT*kG*k[5mC]*kT; antisense) [compound 1075953] | 36
